# Test results reported in patent publication US7741341B2, “Benzimidazole-derivatives as factor Xa inhibitors” (sanofi-aventis Deutschland GmbH, priority 2003, dated 2010).
# Biological target: T1, human factor Xa (Homo sapiens, UniProt P00742)
# T1 construct: human factor Xa (Enzyme Research Laboratories, Inc; South Bend, Ind.); purchased Enzyme Research Laboratories, Inc; South Bend, Ind
# Experiment: Factor Xa assay (chromogenic, substrate S-2765)
# Format: biochemical
# Settings: read-out: Ki(FXa)
# Method: Purified enzymes were used in chromogenic assays.
# The IC50 was determined by combining in appropriate wells of a Costar half-area microtiter plate 25 μl human factor Xa (Enzyme Research Laboratories, Inc.; South Bend, Ind.) in TBS-PEG; 40 μl 10% (v/v) DMSO in TBS-PEG (uninhibited control) or various concentrations of the compound to be tested diluted in 10% (v/v) DMSO in TBS-PEG; and substrate S-2765 (N(α)-benzyloxycarbonyl-D-Arg-Gly-L-Arg-p-nitroanilide; Kabi Pharmacia, Inc.; Franklin, Ohio) in TBS-PEG.
# The assay was performed by pre-incubating the compound of formula I plus enzyme for 10 min. Then the assay was initiated by adding substrate to obtain a final volume of 100 μl. […] The enzyme concentration was 0.5 nM and substrate concentration was 140 μM.
# T1 sequence (P00742 235-488 limits assumed): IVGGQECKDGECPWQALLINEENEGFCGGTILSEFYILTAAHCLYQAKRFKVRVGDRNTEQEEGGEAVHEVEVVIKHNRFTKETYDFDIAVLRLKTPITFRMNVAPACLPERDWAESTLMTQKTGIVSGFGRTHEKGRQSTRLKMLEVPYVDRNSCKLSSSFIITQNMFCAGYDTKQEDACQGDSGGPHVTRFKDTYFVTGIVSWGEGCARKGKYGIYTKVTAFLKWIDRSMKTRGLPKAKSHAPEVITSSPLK
# T1 sequence (P00742 41-179 partner limits assumed): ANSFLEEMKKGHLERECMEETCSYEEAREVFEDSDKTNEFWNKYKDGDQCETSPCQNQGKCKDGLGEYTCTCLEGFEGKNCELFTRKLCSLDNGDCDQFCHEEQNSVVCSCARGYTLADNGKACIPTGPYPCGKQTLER
row,Ki,SMILES
1,21 nM,"CC(C)N1CCC(NC(=O)c2nc3c(C(=O)N4CCC(O)CC4)cccc3n2Cc2cc(-c3ccc(Cl)s3)on2)CC1 [Example 91, 1-[5-(5-Chloro-thiophen-2-yl)-isoxazol-3-ylmethyl]-4-(4-hydroxy-piperidine-1-carbonyl)-1H-benzoimidazole-2-carboxylic acid (1-isopropyl-piperidin-4-yl)-amide]"
2,12.5 nM,"CCOC(=O)OC(C)OC(=O)c1ccc2c(c1)nc(C(=O)NC1CCN(C(C)C)CC1)n2Cc1cc(-c2ccc(Cl)s2)on1 (centres unmarked) [Example 27, 1-[5-(5-Chloro-thiophen-2-yl)-isoxazol-3-ylmethyl]-2-(1-isopropyl-piperidin-4-ylcarbamoyl)-1H-benzoimidazole-5-carboxylic acid 1-ethoxycarbonyloxy-ethyl ester]"
3,35 nM,"CC(OC(=O)OC1CCCCC1)OC(=O)c1ccc2c(c1)nc(C(=O)NC1CCN(C(C)C)CC1)n2CC(=O)Nc1ccc(Cl)cn1 (centres unmarked) [Example 60, 1-[(5-Chloro-pyridin-2-ylcarbamoyl)-methyl]-2-(1-isopropyl-piperidin-4-ylcarbamoyl)-1H-benzoimidazole-5-carboxylic acid 1-cyclohexyloxycarbonyloxy-ethyl ester]"
4,31 nM,"CC(OC(=O)OC1CCCCC1)OC(=O)c1cccc2c1nc(C(=O)NC1CCN(C(C)C)CC1)n2Cc1cc(-c2ccc(Cl)s2)on1 (centres unmarked) [Example 21, 1-[5-(5-Chloro-thiophen-2-yl)-isoxazol-3-ylmethyl]-2-(1-isopropyl-piperidin-4-ylcarbamoyl)-1H-benzoimidazole-4-carboxylic acid 1-cyclohexyloxycarbonyloxy-ethyl ester]"
5,41 nM,"O=C(Cn1c(C(=O)Nc2ccc(N3CCOCC3=O)cc2)nc2ccccc21)Nc1ccc(Cl)cn1 [Example 35, 1-[(5-Chloro-pyridin-2-ylcarbamoyl)-methyl]-1H-benzoimidazole-2-carboxylic acid [4-(3-oxo-morpholin-4-yl)-phenyl]-amide]"
6,10.5 nM,"CC(C)N1CCC(NC(=O)c2nc3c(C(=O)N4CCCOCC4)cccc3n2CC(=O)Nc2ccc(Cl)cn2)CC1 [Example 74, 1-[(5-Chloro-pyridin-2-ylcarbamoyl)-methyl]-4-([1,4]oxazepane-4-carbonyl)-1H-benzoimidazole-2-carboxylic acid (1-isopropyl-piperidin-4-yl)-amide]"
7,11.5 nM,"COC(=O)c1cccc2c1nc(C(=O)NC1CCN(C(C)C)CC1)n2CC(=O)Nc1ccc(Cl)cn1 [Example 15, 1-[(5-Chloro-pyridin-2-ylcarbamoyl)-methyl]-2-(1-isopropyl-piperidin-4-ylcarbamoyl)-1H-benzoimidazole-4-carboxylic acid methyl ester]"
8,11 nM,"CC(C)N1CCC(NC(=O)c2nc3c(C(=O)O)cccc3n2CC(=O)Nc2ccc(Cl)cn2)CC1 [Example 16, 1-[(5-Chloro-pyridin-2-ylcarbamoyl)-methyl]-2-(1-isopropyl-piperidin-4-ylcarbamoyl)-1H-benzoimidazole-4-carboxylic acid]"
9,8.5 nM,"CCOC(=O)OC(C)OC(=O)c1cccc2c1nc(C(=O)NC1CCN(C(C)C)CC1)n2Cc1cc(-c2ccc(Cl)s2)on1 (centres unmarked) [Example 20, 1-[5-(5-Chloro-thiophen-2-yl)-isoxazol-3-ylmethyl]-2-(1-isopropyl-piperidin-4-ylcarbamoyl)-1H-benzoimidazole-4-carboxylic acid 1-ethoxycarbonyloxy-ethyl ester]"
10,9 nM,"CC(C)N1CCC(NC(=O)c2nc3c(C(=O)NCCO)cccc3n2CC(=O)Nc2ccc(Cl)cn2)CC1 [Example 30, 1-[(5-Chloro-pyridin-2-ylcarbamoyl)-methyl]-1H-benzoimidazole-2,4-dicarboxylic acid 4-[(2-hydroxy-ethyl)-amide] 2-[(1-isopropyl-piperidin-4-yl)-amide]]"
11,18.5 nM,"CC(C)N1CCC(NC(=O)c2nc3cc(C(=O)N4CC(O)C4)ccc3n2Cc2cc(-c3ccc(Cl)s3)on2)CC1 [Example 26, 1-[5-(5-Chloro-thiophen-2-yl)-isoxazol-3-ylmethyl]-5-(3-hydroxy-azetidine-1-carbonyl)-1H-benzoimidazole-2-carboxylic acid (1-isopropyl-piperidin-4-yl)-amide]"
